# Measured values taken from US20180221874A1, “FLUIDIC DEVICES INC[…] TISSUE AND METHODS OF USE” (President and Fellows of Harvard College, priority 2015, published 2018).
# “Also recorded” adds a separate entry of the source.
# Tested on: functional muscle tissue of human cardiac tissue
# Assay: Cardiac field potentials of functional muscle tissue measured with flexible electrode array
# Format: cell-based
# Settings: escalating doses of isoproterenol; cardiac field potentials detected by microelectrode array; FIG. 27, 28
# Text: A cell seeding well attached to a second portion of a fluidic device including a gelatin flexible substrate with a micropatterned top surface on a COC base was used to culture a functional muscle tissue of human cardiac tissue on the flexible substrate and to separately evaluate the functional muscle tissue prior to assembling the rest of the fluidic device. FIG. 26 is an image of the cell seeding well 400 attached to the second portion 192 of the fluidic device. The top of the cell seeding well 400 was wrapped in a gas permeable membrane. […] The cultured functional muscle tissue on the flexible substrate was exposed to escalating doses of isoproterenol, a beta-adrenergic agonist, and resulting cardiac field potentials were measured using the flexible electrode array. FIG. 27 is a graph of the measured cardiac field potentials 610, 620, […], 640, 650, 660, 670 as a function of time detected by the microelectrode array for various concentrations of isoproterenol. FIG. 28 is a graph of the measured QT interval shortening as a function of the dose of isoproterenol. […] Thus, the modular nature of the fluidic device enabled the flexible substrate on the second portion of the device to be easily seeded and cultured to form the functional muscle tissue, and enabled the functional muscle tissue to be evaluated prior to assembly of the full fluidic device.
smiles,measurement,value
CC(C)NCC(O)c1ccc(O)c(O)c1 (stereo not shown) [isoproterenol],QT interval as a function of isoproterenol dose,shortening QT interval; also recorded: QT shortening with increased doses
